# Experimental data as given in US20250145642A1, “BICYCLIC HETEROARENES AND METHODS OF THEIR USE” (Kineta, Inc., priority 2021, published 2025).
# Read-outs that look alike come from different tables or passages of the source.
# What was measured:
# [1] = target: full-length human PIKFYVE (N-terminal GST-fusion) (Homo sapiens (Human), UniProt Q9Y2I7, L932S/Q1183K/Q995L/S1033A/S696N/T998S); experiment: PIKfyve biochemical assay (ADP-Glo Kinase assay, Carna Biosciences)
# How it was run: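 Baculovirus-expressed, glutathione-purified GST-tagged full-length human PIKFYVE (S696N/L932S/Q995L/T998S/S1033A/Q1183K) reacted with substrate and ATP in 50 mM MOPS, 1 mM DTT, pH 7.2, 1 h at room temperature. ADP formed read by ADP-Glo luminescence.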
# [2] = target: PIKfyve (PIKFYVE-NanoLuc fusion in HEK293 cells) (Homo sapiens (Human), UniProt Q9Y2I7); experiment: NanoBRET TE Intracellular Kinase Assay, K-8 (Promega) cell-based assay; conditions: transfected HEK293 cells, 2 hours, read-out: hPIKfyve BRET IC50
# Procedure: NanoBRET™ TE Intracellular Kinase Assay, K-8 (Promega) Cell-Based Assay. Intracellular inhibition of PIKfyve was assayed using Promega's NanoBRET™ TE Intracellular Kinase Assay, K-8 according to manufacturer's instructions. A dilution series of test compounds was added for 2 hours to HEK293 cells transfected for a minimum of 20 hours with PIKFYVE-NanoLuc® Fusion Vector (Promega) containing a full-length PIKfyve according to manufacturer's specifications in a 96-well plate. Kinase activity was detected by addition of a NanoBRET™ tracer reagent, which was a proprietary PIKfyve inhibitor appended to a fluorescent probe (BRET, bioluminescence resonance energy transfer). Test compounds were tested at concentrations of 10, 3, 1, 0.3, 0.1, 0.03, 0.01, 0.003 μM. BRET signals were measured by a GloMax®Discover Multimode Microplate Reader (Promega) using 0.3 sec/well integration time, 450 BP donor filter and 600 LP acceptor filters. Active test compounds that bound PIKfyve and displaced the tracer reduced BRET signal. IC50 values were then calculated by fitting the data to the normalized BRET ratio.
# FAB1 TDP-43 yeast strain = experiment: Propidium iodide viability assay, FAB1 TDP-43 yeast strain; type: cell-based; conditions: for FAB1 TDP-43 (active/inactive): FAB1 TDP-43 yeast model
# Excerpt: (§1) Generation of TDP-43 yeast model expressing human PIKfyve. Human PIKFYVE (“entry clone”) was cloned into pAG416GPDccdB (“destination vector”) according to standard Gateway cloning protocols (Invitrogen, Life Technologies). The resulting pAG416GPD-PIKFYVE plasmids were amplified in E. coli and plasmid identity confirmed by restriction digest and Sanger sequencing. Lithium acetate/polyethylene glycol-based transformation was used to introduce the above PIKFYVE plasmid into a BY4741 yeast strain auxotrophic for the ura3 gene and deleted for two transcription factors that regulate the xenobiotic efflux pumps, a major efflux pump, and FAB1, the yeast ortholog of PIKFYVE (MATa, snq2::KILeu2; pdr3::KIura3;pdr1::NATMX; fab1::G418^R, his 3;leu2;ura3;met15;LYS2+) (FIG. 2). Transformed yeast were plated on solid agar plates with complete synthetic media lacking uracil (CSM-ura) and containing 2% glucose. Individual colonies harboring the control or PIKFYVE TDP-43 plasmids were recovered. A plasmid containing wild-type TDP-43 under the transcriptional control of the GAL1 promoter and containing the hygromycin-resistance gene as a selectable marker was transformed into the fab1::G418^R pAG416GPD-PIKFYVE yeast strain (FIG. 1). Transformed yeast were plated on CSM-ura containing 2% glucose and […] G418 after overnight recovery in media lacking antibiotic. Multiple independent isolates were further evaluated for cytotoxicity and TDP-43 expression levels.
# (§2) Viability Assay. A control yeast strain with the wild-type yeast FAB1 gene and TDP-43 (“FAB1 TDP-43”, carries empty pAG416 plasmid), and the “PIKFYVE TDP-43” yeast strain, were assessed for toxicity using a propidium iodide viability assay. Both yeast strains were transferred from solid CSM-ura/2% glucose agar plates into 3 mL of liquid CSM-ura/2% glucose media for 6-8 hours at 30° C. with aeration. Yeast cultures were then diluted to an optical density at 600 nm wavelength (OD600) of 0.005 in 3 mL of CSM-ura/2% raffinose and grown overnight at 30° C. with aeration to an OD600 of 0.3-0.8. Log-phase overnight cultures were diluted to OD600 of 0.005 in CSM-ura containing either 2% raffinose or galactose and 150 μL dispensed into each well of a flat bottom 96-well plates. Compounds formulated in 100% dimethyl sulfoxide (DMSO) were serially diluted in DMSO and 1.5 μL diluted compound transferred to the 96-well plates using a multichannel pipet. Wells containing DMSO alone were also evaluated as controls for compound effects. Tested concentrations ranged from 15 μM to 0.11 μM. Cultures were immediately mixed to ensure compound distribution and covered plates incubated at 30° C. for 24 hours in a stationary, humified incubator.
# (§3) Upon the completion of incubation, cultures were assayed for viability using propidium iodide (PI) to stain for dead/dying cells. A working solution of PI was made where, for each plate, 1 μL of 10 mM PI was added to 10 mL of CSM-ura (raffinose or galactose). The final PI solution (50 μL/well) was dispensed into each well of a new round bottom 96-well plate. The overnight 96-well assay plate was then mixed with a multichannel pipet and 50 μL transferred to the PI-containing plate. This plate was then incubated for 30 minutes at 30° C. in the dark. A benchtop flow cytometer (Miltenyi MACSquant) was then used to assess red fluorescence (B2 channel), forward scatter, and side scatter (with following settings: gentle mix, high flow rate, fast measurement, 10,000 events). Intensity histograms were then gated for “PI-positive” or “PI-negative” using the raffinose and galactose cultures treated with DMSO as controls. The DMSO controls for raffinose or galactose-containing cultures were used to determine the window of increased cell death and this difference set to 100. All compounds were similarly gated and then compared to this maximal window to establish the percent reduction in PI-positive cells.
# [3] = system: PIKFYVE TDP-43 yeast strain; experiment: Propidium iodide viability assay, PIKFYVE TDP-43 yeast strain; type: cell-based; conditions: for PIKfyve TDP-43 (active/inactive): PIKFYVE TDP-43 yeast model
# Excerpt: as §1, §2, §3
# Biochemical and Efficacy Assays. […]
# [4] = ADP-Glo, full-length human GST-PIKFYVE, 10 μM to 3 nM, read-out: hPIKfyve IC50
# Sequence of full-length human PIKFYVE (N-terminal GST-fusion) (Q9Y2I7 whole entry S696N/L932S/Q995L/T998S/S1033A/Q1183K, the tested form may be a part): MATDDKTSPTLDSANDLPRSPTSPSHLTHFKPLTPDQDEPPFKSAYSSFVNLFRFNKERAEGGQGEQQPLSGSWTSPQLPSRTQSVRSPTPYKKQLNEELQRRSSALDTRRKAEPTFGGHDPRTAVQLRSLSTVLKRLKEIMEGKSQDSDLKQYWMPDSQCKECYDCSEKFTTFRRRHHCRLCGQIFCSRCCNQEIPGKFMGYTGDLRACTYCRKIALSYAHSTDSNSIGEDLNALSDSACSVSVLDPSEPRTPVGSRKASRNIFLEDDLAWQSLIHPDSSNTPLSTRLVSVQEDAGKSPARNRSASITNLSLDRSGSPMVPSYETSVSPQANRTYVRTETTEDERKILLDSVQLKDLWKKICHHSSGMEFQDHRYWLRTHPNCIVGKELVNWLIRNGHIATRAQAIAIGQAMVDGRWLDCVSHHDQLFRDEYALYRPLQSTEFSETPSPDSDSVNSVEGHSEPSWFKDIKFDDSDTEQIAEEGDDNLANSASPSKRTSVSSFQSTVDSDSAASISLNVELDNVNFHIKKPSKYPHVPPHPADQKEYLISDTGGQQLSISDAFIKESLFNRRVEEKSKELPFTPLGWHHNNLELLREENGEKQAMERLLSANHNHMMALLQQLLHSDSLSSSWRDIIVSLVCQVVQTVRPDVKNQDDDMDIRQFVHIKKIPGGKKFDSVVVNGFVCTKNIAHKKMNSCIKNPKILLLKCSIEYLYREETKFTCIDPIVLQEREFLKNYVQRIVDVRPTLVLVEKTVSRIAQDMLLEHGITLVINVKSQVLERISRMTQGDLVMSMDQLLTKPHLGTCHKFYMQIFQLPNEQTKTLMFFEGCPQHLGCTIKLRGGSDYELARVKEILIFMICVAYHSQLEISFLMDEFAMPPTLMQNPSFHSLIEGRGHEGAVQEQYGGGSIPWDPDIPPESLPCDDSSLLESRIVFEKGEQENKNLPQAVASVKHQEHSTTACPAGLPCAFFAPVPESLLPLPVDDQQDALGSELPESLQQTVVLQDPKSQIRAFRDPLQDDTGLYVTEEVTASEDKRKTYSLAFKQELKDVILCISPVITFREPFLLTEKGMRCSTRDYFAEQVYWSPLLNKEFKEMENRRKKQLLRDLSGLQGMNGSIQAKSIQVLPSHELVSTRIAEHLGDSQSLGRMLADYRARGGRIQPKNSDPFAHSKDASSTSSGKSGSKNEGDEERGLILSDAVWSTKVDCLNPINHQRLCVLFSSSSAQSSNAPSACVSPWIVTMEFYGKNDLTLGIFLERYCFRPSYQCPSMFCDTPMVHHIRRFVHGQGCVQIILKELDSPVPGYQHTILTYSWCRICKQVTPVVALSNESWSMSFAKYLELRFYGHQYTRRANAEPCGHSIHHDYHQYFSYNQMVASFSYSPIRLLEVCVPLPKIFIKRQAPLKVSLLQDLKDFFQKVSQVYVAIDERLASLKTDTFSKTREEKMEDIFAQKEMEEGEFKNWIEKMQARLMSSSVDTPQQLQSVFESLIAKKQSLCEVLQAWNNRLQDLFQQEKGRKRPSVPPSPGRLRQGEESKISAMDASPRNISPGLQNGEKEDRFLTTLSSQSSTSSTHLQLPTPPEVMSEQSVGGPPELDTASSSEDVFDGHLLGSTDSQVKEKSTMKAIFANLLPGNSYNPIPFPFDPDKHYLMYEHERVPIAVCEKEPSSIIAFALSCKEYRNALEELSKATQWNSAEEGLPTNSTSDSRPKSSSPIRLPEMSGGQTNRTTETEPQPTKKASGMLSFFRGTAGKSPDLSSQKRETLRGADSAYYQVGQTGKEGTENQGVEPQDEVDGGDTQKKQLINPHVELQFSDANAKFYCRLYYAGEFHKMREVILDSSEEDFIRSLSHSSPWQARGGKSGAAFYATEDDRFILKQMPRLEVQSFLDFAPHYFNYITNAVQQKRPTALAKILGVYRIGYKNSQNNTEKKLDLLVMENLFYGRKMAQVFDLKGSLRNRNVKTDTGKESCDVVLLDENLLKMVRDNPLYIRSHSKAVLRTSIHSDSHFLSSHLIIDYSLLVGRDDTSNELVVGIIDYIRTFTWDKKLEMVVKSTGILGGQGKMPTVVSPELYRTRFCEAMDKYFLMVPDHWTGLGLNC
# Sequence of PIKfyve (PIKFYVE-NanoLuc fusion in HEK293 cells) (Q9Y2I7 whole entry, the tested form may be a part): as the sequence (Q9Y2I7 whole entry S696N/L932S/Q995L/T998S/S1033A/Q1183K, the tested form may be a part) above, with N696S, S932L, L995Q, S998T, A1033S, K1183Q counted along it
Compound,"IC50 [1, 4] [nM]",IC50 [2] [nM],FAB1 TDP-43 (active/inactive) (FAB1 TDP-43 yeast strain),PIKfyve TDP-43 (active/inactive) [3],other results
"c1ccc(N2CCc3c(OC4CCOCC4)nc(N4CCOCC4)nc32)cc1 [Compound 21, 4-(7-phenyl-4-((tetrahydro-2H-pyran-4-yl)oxy)-6,7-dihydro-5H-pyrrolo[2,3-d]pyrimidin-2-yl)morpholine]",100 to 1000,100 to 1000,,,
Cc1cccc(/C=N/Nc2nc3c(c(N4CCOCC4)n2)N=C(c2ccncc2)C3C)c1 (centres unmarked),,,Inactive,Active,"IC50 ([1]; ADP-Glo with full-length PIKfyve, read-out: PIKfyve IC50): 4.9 nM"
"Cc1cccc(/C=N/Nc2cc(N3CCOCC3)n3nc(-c4ccncc4)cc3n2)c1 [APY0201, reference compound]",,,,,"viable cells in FAB1 TDP-43 (propidium iodide) (FAB1 TDP-43 yeast strain; across a range of compound concentrations (only 0.23 μM is shown), FIG. 5): no increase in viable cells; propidium iodide-positive dead cells in PIKFYVE TDP-43 ([3]; 0.23 μM, FIG. 6): reduced the population of propidium iodide-positive dead cells; concentrations affording increased viability in PIKFYVE TDP-43 ([3]; PIKFYVE TDP-43 model): Concentrations ranging from 0.5 mM to less than 100 nM afforded increased viability"
Cc1cccc(/C=N/Nc2cc(N3CC4CC3CO4)n3nc(-c4ccncc4)cc3n2)c1 (centres unmarked),,,Inactive,Active,
CN(C)c1cc(N2CCOCC2)n2nc(-c3ccncc3)cc2n1,,,Inactive,Inactive,
"c1ccc(-n2ncc3c(OCc4cccnc4)nc(N4CCOCC4)nc32)cc1 [Compound 132, 4-(1-phenyl-4-(pyridin-3-ylmethoxy)-1H-pyrazolo[3,4-d]pyrimidin-6-yl)morpholine]",10 to 100,100 to 1000,,,
Cc1cccc(/C=N/Nc2cc(N3CCOCC3)n3nc(-c4ccncc4)cc3n2)c1 [drawing 514],,,Inactive,Active,
Cn1c(-c2ccncc2)nc2c(N3CCOCC3)ncnc21,,,Inactive,Inactive,
"Clc1nc(N2CCOCC2)nc2c1CCN2c1ccccc1 [Compound 1, 4-(4-chloro-7-phenyl-6,7-dihydro-5H-pyrrolo[2,3-d]pyrimidin-2-yl)morpholine]",100 to 1000,100 to 1000,,,
